The source of these data is patent US20260091015A1, “TREATING IRON DEFICIENCY WITH FERRIC CARBOXYMALTOSE” (PHARMACOSMOS HOLDING A/S, priority 2018, published 2026).

A short description of series [1]: Incidence of hypophosphatemia / s-phosphate in randomized open-label trials IDA-04 and IDA-05. It counts as in vivo, human. As for the experimental part: Two prospective randomized, open-label, comparative trials were performed comparing the incidence of hypophosphatemia in relation to treatment with iron isomaltoside (“IIM”, tradename Monofer®, Monoferric®) and ferric carboxymaltose (“FCM”, trade name Injectafer, Ferinject) in adult human subjects with iron deficiency anaemia.
The trial was a randomized, open-label, comparative trial. Subjects with Iron Deficiency Anaemia (IDA) were randomized 1:1 to one treatment course of one of the following treatments: • Group A: iron isomaltoside 1000 (Monofer®, Pharmacosmos, Holbok, Denmark, termed iron isomaltoside in the following), 1000 mg at baseline • Group B: ferric carboxymaltose (Ferinject®/Injectafer®, Vifor Inc, Switzerland), 750 mg at baseline and day 7, cumulative dose: 1500 mg
The primary endpoint was the incidence of hypophosphatemia (defined as s-phosphate <2 mg/dL) at any time from baseline to day 35. […]
The following safety laboratory assessments were analysed: • S-phosphate: inorganic phosphorous forms an ammonium phosphomolybdate complex having the formula (NH4)3[PO4](MoO3)12 with ammonium molybdate in the presence of sulfuric acid. The complex was determined photometrically in the ultraviolet region (340 nm) of the spectrum using the Roche Modular and Cobas Analyzer. • iFGF23 and cFGF23: the human intact FGF23 was measured by the 2nd generation Elisa kit manufactured by Immonotropics, Inc, San Clemente, CA. […] The human C-terminal FGF23 was measured by the Elisa kit manufactured by Immonotropics, Inc, San Clemente, CA. […] After evaporation under nitrogen, the residue was reconstituted and analyzed using Liquid Chromatography (LC) with Tandem Mass Spectrometric detection (MS/MS). […]

In the next series the test system is intact FGF23. The conditions noted are these: women with IDA secondary to heavy uterine bleeding; Wolf et al., 2013; cited from earlier work.
The mark [2] stands for this setting: FCM 750 mg at baseline and day 7 vs JIM 1000 mg at baseline, subjects with IDA, baseline to day 35.

For the substance ferric carboxymaltose [FCM], in series [1] (setting [2]), the “rate of hypophosphatemia, moderate to severe form with serum phosphate below 2 mg/dL” value is on record as “significantly higher” and the “rate of hypophosphatemia, severe form of serum phosphate at or below 1.0 mg/dL” value is given as “significantly higher”. In addition, in series [1] (after FCM treatment), the serum phosphate entry was “decrease”. Moreover, in the series with intact FGF23, the iFGF23 levels result is given as “temporarily increased”.
